In patent publication US11723898B2, “Androgen receptor inhibitors for the treatment of non-metastatic castration-resistant prostate cancer in subjects with severe hepatic impairment” (Aragon Pharmaceuticals, Inc., priority 2019, dated 2023):

Columns and labels:
[1] = molecular target: AR (Homo sapiens, UniProt P10275); settings: cited from earlier work
[2] = tested on: non-castrate hormone-sensitive and bicalutamide-resistant human prostate cancer xenograft models; settings: cited from earlier work
[3] = pharmacokinetic study data, subjects with mild and moderate hepatic impairment versus healthy controls; type: in vivo, human
[4] = molecular target: T1, T877A AR mutant (Homo sapiens, UniProt P10275, T878A); settings: cited from earlier work
T1 sequence (P10275 1-920 T878A): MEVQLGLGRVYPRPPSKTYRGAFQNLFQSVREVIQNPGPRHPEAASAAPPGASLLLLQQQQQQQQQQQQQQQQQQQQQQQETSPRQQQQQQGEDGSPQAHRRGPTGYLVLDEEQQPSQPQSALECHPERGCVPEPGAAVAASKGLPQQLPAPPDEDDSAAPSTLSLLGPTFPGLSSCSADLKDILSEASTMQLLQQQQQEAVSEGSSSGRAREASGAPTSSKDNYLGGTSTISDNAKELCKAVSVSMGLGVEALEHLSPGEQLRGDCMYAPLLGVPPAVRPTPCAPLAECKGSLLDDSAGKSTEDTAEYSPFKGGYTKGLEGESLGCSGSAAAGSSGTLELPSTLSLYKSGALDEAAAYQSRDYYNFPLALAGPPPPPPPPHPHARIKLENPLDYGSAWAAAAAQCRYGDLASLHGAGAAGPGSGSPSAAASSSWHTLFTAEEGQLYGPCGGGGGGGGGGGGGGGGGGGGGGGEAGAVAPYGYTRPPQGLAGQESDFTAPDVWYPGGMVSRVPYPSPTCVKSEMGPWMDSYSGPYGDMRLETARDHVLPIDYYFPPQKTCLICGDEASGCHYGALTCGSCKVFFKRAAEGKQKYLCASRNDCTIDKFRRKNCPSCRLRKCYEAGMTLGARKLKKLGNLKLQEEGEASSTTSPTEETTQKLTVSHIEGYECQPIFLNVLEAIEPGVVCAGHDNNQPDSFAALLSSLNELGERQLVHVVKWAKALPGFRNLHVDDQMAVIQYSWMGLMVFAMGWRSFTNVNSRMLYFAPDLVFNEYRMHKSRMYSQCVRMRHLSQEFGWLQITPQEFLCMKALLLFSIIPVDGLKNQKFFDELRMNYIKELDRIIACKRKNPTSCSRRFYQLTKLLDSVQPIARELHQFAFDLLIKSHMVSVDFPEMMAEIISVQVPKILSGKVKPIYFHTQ

Chain of AR (P10275 whole entry): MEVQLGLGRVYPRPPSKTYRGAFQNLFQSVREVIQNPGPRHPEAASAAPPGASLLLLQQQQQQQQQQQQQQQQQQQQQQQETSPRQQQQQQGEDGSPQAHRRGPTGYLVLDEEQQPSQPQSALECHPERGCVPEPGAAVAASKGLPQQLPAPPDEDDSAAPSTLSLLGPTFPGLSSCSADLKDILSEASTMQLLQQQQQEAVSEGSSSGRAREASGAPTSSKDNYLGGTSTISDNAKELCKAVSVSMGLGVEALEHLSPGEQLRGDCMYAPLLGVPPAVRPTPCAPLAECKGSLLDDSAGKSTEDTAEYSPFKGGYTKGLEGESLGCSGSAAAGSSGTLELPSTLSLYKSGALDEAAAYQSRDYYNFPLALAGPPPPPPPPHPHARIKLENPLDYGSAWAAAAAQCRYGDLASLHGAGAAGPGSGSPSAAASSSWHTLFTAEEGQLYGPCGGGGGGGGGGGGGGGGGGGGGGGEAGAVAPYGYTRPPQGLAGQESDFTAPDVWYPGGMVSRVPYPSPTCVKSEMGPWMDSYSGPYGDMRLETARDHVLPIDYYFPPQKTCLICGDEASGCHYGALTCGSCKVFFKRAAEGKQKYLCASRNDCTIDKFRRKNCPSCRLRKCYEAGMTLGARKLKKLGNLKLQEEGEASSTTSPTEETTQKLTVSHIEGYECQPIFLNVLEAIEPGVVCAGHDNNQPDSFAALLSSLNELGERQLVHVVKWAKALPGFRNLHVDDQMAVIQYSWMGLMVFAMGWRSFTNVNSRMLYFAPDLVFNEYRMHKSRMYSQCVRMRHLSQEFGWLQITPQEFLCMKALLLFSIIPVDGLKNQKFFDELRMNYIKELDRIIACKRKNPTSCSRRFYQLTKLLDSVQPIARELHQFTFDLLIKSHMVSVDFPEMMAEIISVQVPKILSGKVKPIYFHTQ

Which “binding affinity for AR” value [1] does the source give for `CC(O)c1cc(C(=O)N[C@@H](C)Cn2ccc(-c3ccc(C#N)c(Cl)c3)n2)n[nH]1` (stereo partly drawn) [Darolutamide, N-{(2S)-1-[3-(3-chloro-4-cyanophenyl)-1H-pyrazol-1-yl]propan-2-yl}-5-(1-hydroxyethyl)-1H-pyrazole-3-carboxamide] here?
The value was “high affinity”.

Which results are given for `CNC(=O)c1ccc(N2C(=S)N(c3cnc(C#N)c(C(F)(F)F)c3)C(=O)C23CCC3)cc1F` [apalutamide, 4-[7-(6-cyano-5-trifluoromethylpyridin-3-yl)-8-oxo-6-thioxo-5,7-diazaspiro[3.4]oct-5-yl]-2-fluoro-N-methylbenzamide]?
tumor regression [2]: partial or complete tumor regression; total coefficient of variation (CV) for AUCs (AUClast and AUC∞) [3]: ≤ 27%; total coefficient of variation (CV) for Cmax [3]: ≤ 35%

For `CC(C)(O)C(=O)Nc1ccc([N+](=O)[O-])c(C(F)(F)F)c1` [hydroxyflutamide], which agonist activity [4] is on record?
The agonist activity was “act as AR agonists”.
